# Values joined by “and” are separate entries in the source; they are usually repeats but may differ in a detail not shown here. Identical values can stand only once.
# Experiments:
# [1] = molecular target: [^35S]25-nt hnRNP-E1 mRNA cis-element; experiment: Dissociation constant (KD) of GST-hnRNP-E1 or its mutant proteins for the 25-nt hnRNP-E1 mRNA cis-element; type: binding, human; settings: L-Homocysteine 0 μM
# Method: (§1) Methods for testing the ability of an engineered hnRNP-E1 variant polypeptide to bind to an RNA comprising the sequence of SEQ ID NO:6 are known in the art. Such methods include, but are not limited to, RNA electrophoretic mobility shift assays, as exemplified herein, RNA pull-down assays, and oligonucleotide-targeted RNase H protection assays. Such assays are conducted in the presence or absence of homocysteine to determine the RNA-binding dependence of any particular hnRNP-E1 polypeptide tested on the presence of homocysteine. […] Additional methods are outline in Tang et al. (“Incrimination of heterogeneous nuclear ribonucleoprotein E1 (hnRNP-E1) as a candidate sensor of physiological folate deficiency.” J Biol Chem. 2011; 286(45):39100-39115), which is incorporated herein in its entirety.
# (§2) Specific binding was determined by subtracting values of non-specific binding with GST from those of total binding with GST-hnRNP-E1; (however, in Table 1 and FIG. 6G, non-specific binding using bovine serum albumin (BSA) was subtracted from total binding to GST-hnRNP-E1 to determine specific binding). The KD was calculated from a Scatchard plot using GraphPad Prism 6 from GraphPad Software (San Diego, Calif.), as previously described in the art.
# [2] = molecular target: [^35S]18-nt folate receptor-α mRNA cis-element; experiment: Dissociation constant (KD) of GST-hnRNP-E1 or its mutant proteins for the 18-nt folate receptor-α mRNA cis-element; type: binding, human; settings: L-Homocysteine 0 μM; listed as (HA)-hnRNP-E1(C293 S)-mutant
# Method: as §1, §2
# [3] = tested on: 25-nt hnRNP-E1 mRNA cis-element; experiment: Gel-shift assay of hnRNP-E1 proteins with 25-nt hnRNP-E1 mRNA cis-element; type: binding, human; settings: absence of L-homocysteine
# Method: (§3) Parenthetically, there was no significant difference in RNA binding to GST-hnRNP-E1 by use of either 32P-RNA probes or 35S-labeled RNA probes used. Other studies assessed the effect of iron(II) or iron(III) on homocysteine-induced RNA-protein interactions.
# (§4) Recombinant GST-plasmid DNA, pGST-hnRNP-E1, pGST-hnRNP-E2, and related engineered variant plasmids were transformed into BL21 Escherichia coli from Novagen (Madison, Wis.). After induction by 1 mM isopropyl-1-thio-ß-D-galactopyranoside, the GST-hnRNP-E1 and engineered variant fusion proteins were individually purified using the B-PER GST Fusion Protein Purification Kit (Pierce, Rockford, Ill.). The eluted GST fusion proteins were dialyzed against 500 volumes of buffer to remove excess reducing reagents (such as dithiothreitol (DTT)) and assayed by SDS-PAGE and Western blots using anti-peptide hnRNP-E1 antiserum. Gel shift assays with target RNA were carried out as described.
# [4] = tested on: 18-nt folate receptor-α mRNA cis-element; experiment: Gel-shift assay of hnRNP-E1 proteins with 18-nt folate receptor-α mRNA cis-element; type: binding, human; settings: absence of homocysteine or other reducing agent
# Method: as §3, §4
# [5] = tested on: HPV16 L2 mRNA cis-element; experiment: Gel-shift assay of hnRNP-E1 proteins with HPV16 L2 mRNA; type: binding, Human Papillomavirus type 16; settings: absence of reducing agents; versus wild-type and G292A
# Method: as §3
# (§5) Construction of plasmids for generation of HPV16 L2 RNA, gel-shift and in vitro translation studies were carried as described with additional treatments shown in FIGS. 10A-10D
# hnRNP-E1 mRNA = experiment: In vitro translation of hnRNP-E1; type: biochemical, human; settings: protein added after neutralizing ß-ME by N-ethylmaleimide
# Method: (§6) In vitro transcription-translation was carried out using the Linked SP6/T7 In Vitro Transcription/Translation Kit (Roche Applied Science) after addition of one of various targeted DNAs—pSPT18-25-hnRNP-E1 DNA, or Pst1-linearized plasmid pSPT18-folate receptor-α, or HPV16 L2 DNA, (0.5 μg/reaction)—to the transcription mix as described. In other experiments, the capacity for perturbing the interaction of hnRNP-E1 with the 25-nt hnRNP-E1 cis-element during in vitro translation was assessed in the presence of either scrambled oligonucleotides (5′-[…]-3′ SEQ ID NO:20) or specific antisense oligonucleotides (5′-[…]-3′ SEQ ID NO:21) generated against the 25-nt hnRNP-E1 mRNA cis-element (GenScript USA, Piscataway, N.J.).
# folate receptor-α mRNA = experiment: In vitro translation of folate receptor-α; type: biochemical, human; settings: presence of 2-mM NEM
# Method: In vitro transcription-translation was carried out using the Linked SP6/T7 In Vitro Transcription/Translation Kit (Roche Applied Science) after addition of one of various targeted DNAs—pSPT18-25-hnRNP-E1 DNA, or Pst1-linearized plasmid pSPT18-folate receptor-α, or HPV16 L2 DNA, (0.5 μg/reaction)—to the transcription mix as described. In other experiments, the capacity for perturbing the interaction of hnRNP-E1 with the 25-nt hnRNP-E1 cis-element during in vitro translation was assessed in the presence of either scrambled oligonucleotides (5′-GCGTCGCTCGCTTCGCACGTGCGCC-3′ SEQ ID NO:20) or specific antisense oligonucleotides (5′-GGG AGC GAG CGG GCG GGA G-3′ SEQ ID NO:21) generated against the 25-nt hnRNP-E1 mRNA cis-element (GenScript USA, Piscataway, N.J.).
# HPV16 L2 RNA = experiment: In vitro translation of HPV16 L2 protein; type: biochemical, Human Papillomavirus type 16; settings: after quenching excess ß-ME by NEM (2 mM)
# Method: as §6, §5
# [6] = tested on: 18-nt folate receptor-α mRNA cis-element-linked CAT reporter; experiment: CAT reporter driven by 18-nt folate receptor-α mRNA cis-element, co-transfected with hnRNP-E1 plasmids in HeLa-IU1-HF cells; type: cell-based, human; settings: pSV-β-gal normalization
# Method: A plasmid containing CAT reporter DNA driven by an 18-nucleotide folate receptor-α mRNA cis-element, was constructed as previously described. Briefly, HeLa-IU1-HF cells were grown to 70-80% confluence and then co-transfected with CAT reporter DNA driven by an 18-nucleotide folate receptor-α mRNA cis-element and various construct combinations of either wild-type and mutant hnRNP-E1 plasmids using X-tremeGENE DNA transfection reagent (Roche Applied Science). The transfection reactions were set up with 6-μg DNA and 12-μL XtremeGENE DNA transfection reagent for each well. In these transfection experiments, pSV-ß-gal was used as an internal control to monitor the efficiency of transfection of cells. After 48 h cells were harvested for protein determination using the BCA protein assay (Pierce); ß-galactosidase activity by the ß-galactosidase chemiluminescent assay (Roche Diagnostics); and CAT activity using a CAT ELISA kit (Roche Diagnostics). All experiments were carried out 4 times with 3 replications per treatment. The data from non-transfected cells was used as a background and subtracted from that obtained with transfected cells. All data were normalized using the internal standard and protein concentration for each treatment.
# [7] = tested on: newly synthesized [^35S]hnRNP-E1 in placental 1584-HF cells; experiment: Biosynthetic rate of hnRNP-E1 after protein transfection into placental 1584-HF cells; type: cell-based, human; settings: protein transfected in placental 1584-HF cells
# Text: (§7) Transfection of purified recombinant wild-type or various mutant hnRNP-E1 proteins into cells was achieved using the Xfect™ Protein Transfection Kit (Clontech, Mountain View, Calif.). Briefly, placental 1584-HF cells in 10-cm dishes at 70-80% confluence were transfected with 2.4-mL serum-free medium and Xfect Protein Transfection Reagent (1.2-mL) containing 20-μg of either wild-type hnRNP-E1-, or highest-affinity (HA)-hnRNP-E1(C293S)-mutant, or wild-type-like hnRNP-E1 (G292A)-mutant proteins and 2-μg of ß-galactosidase at 37° C. for 60-min. After cysteine-starvation for 4-h, an aliquot of cells were assessed for ß-galactosidase activity (to measure the efficiency of co-transfection of ß-galactosidase) and the remaining cells were pulsed with L-[^35S]cysteine (250-μCi) and assessed for specific [^35S]cysteine incorporated into folate receptor to determine the biosynthetic rate of this protein. A similar protocol was employed for analysis of newly synthesized [^35S]hnRNP-E1 using anti-hnRNP-E1 antiserum-coupled agarose and control agarose in order to derive values for specific [^35S]cysteine incorporated into hnRNP-E1 and thereby determine the biosynthetic rate of this protein.
# [8] = tested on: newly synthesized [^35S]folate receptors in placental 1584-HF cells; experiment: Biosynthetic rate of folate receptors after protein transfection into placental 1584-HF cells; type: cell-based, human; settings: protein transfected in placental 1584-HF cells
# Text: as §7
# [9] = listed as (HA)-hnRNP-E1(C293S)-mutant
substance,measurement,setting,value
"GST-hnRNP-E1(C293S): highest-affinity mutant, cysteine-293 to serine in the KH3 domain of hnRNP-E1 (SEQ ID NO:2)",Kd,[1],0.39 nM
same,Kd,[2],0.27 nM and 0.2 nM
same,RNA-protein gel-shift signal,[3],strong signal
same,RNA-protein signal,[4],strongest RNA-protein signal
same,interaction with HPV16 L2 mRNA on gel-shift assays,[5],greater interaction
same,translation of hnRNP-E1 in vitro,hnRNP-E1 mRNA,markedly stimulated translation of hnRNP-E1 in vitro
same,translation of folate receptor-α,folate receptor-α mRNA,maximally increased
same,HPV16 L2 protein signal,HPV16 L2 RNA,progressive reduction in signal
same,folate receptor-α cis-element-linked CAT activity versus wild-type hnRNP-E1 or G292A control,[6],two and one-half times stronger
same,[^35S]cysteine-hnRNP-E1,[7],6.70 ± 1.74 c fmol/mg protein/h
same,increase in the rate of biosynthesis of [^35S]hnRNP-E1,[7],over 6 fold
same,[^35S]cysteine-hnRNP-E1,[7]; [9],6.70 fmol/mg protein/h
same,[^35S]cysteine-folate receptor,[8],6.62 ± 0.74 c fmol/mg protein/h
same,[^35S]cysteine-folate receptor,[8]; [9],6.62 fmol/mg protein/h
same,increase of [^35S]folate receptors over controls,[8]; over wild-type and G292A controls,~4 fold
